Source: patent US20080254986A1, “Use of piperonyl butoxide to protect plants” (priority 2007, published 2008)

Columns and labels:
Type in all cases: in vivo
cotton [1] = assay: Stomatal conductance of cotton plants after drench application; settings: for Reduction of stomatal conductance: drench 50 ppm ABA
Description: Cotton was planted and grown at 25° C. under a 16:8 photoperiod for 14 days. After two weeks, plants were moved to the greenhouse (25±2° C., 16:8 photoperiod) for an additional three weeks before treatment. […] Transpiration rate of each treatment was calculated as the percentage of that of control at each day to eliminate day-to-day variation caused by changes of environmental condition such as light intensity and temperature. In cotton, ABA, PBO and the combination were applied to evaluate the effect on stomatol conductance. A decrease in stomatal aperture, reflected in the conductance measures, is an immediate and direct effect of applied ABA (Finkelstein and Rock, 2002).

Impatiens plants [2] = assay: Marketability of Impatiens plants, ABA drench and PBO foliar spray
Description: (§1) Ornamental Plants were purchased from local greenhouse retail outlets and allowed to equilibrate to greenhouse conditions for a minimum of 48 hours before experiments were performed.
(§2) To quantify resistance of plants to wilting, a wilt index was developed. The wilt index uses numerical values of 1-4 (1=no wilt, 4=completely wilted and loss of turgor) to express wilt status. A wilt index was determined for each individual plant assessed daily. When the wilt index was equal to or exceeded 2.5, the plant was considered not salable, and the last day prior to that was considered its last marketable day
To better determine the effectiveness of PBO on ABA effectiveness, a spatial separation in application methodology was used. That is, water or ABA were drench applied at 10% of the pot volume, followed by a spray application to the foliage of Tween 20 (0.05%) in water, either alone, or in combination with 1000 ppm PBO.
In Table 6, the rate of ABA in the drench application is varied in order to determine the effect of PBO sprays on ABA rate.

Pansy = assay: Marketability of Pansy after sprays
Description: as §1, §2
To determine if the ABA, PBO, or the combination of ABA and PBO is effective at increasing marketable life of other ornamental plants, Pansy plants were used. All applications were made by spray to fully hydrated plants. Solutions were applied as soon as possible after mixing. All spray applications contained Tween 20 at 0.05% (v/v). Plants were held in a greenhouse without further irrigation.

Impatiens plants [3] = assay: Marketability (days marketable) of Impatiens plants after sprays
Description: as §1, §2
When the wilt incidence was less than 2.5, the treated plants were considered saleable. The duration of salability was determined for individual plants and the values averaged (Table 4).

cotton [4] = assay: Stomatal conductance of cotton plants after spray application
Description: Cotton was planted and grown at 25° C. under a 16:8 photoperiod for 14 days. After two weeks, plants were moved to the greenhouse (25±2° C., 16:8 photoperiod) for an additional three weeks before treatment.
[…] Transpiration rate of each treatment was calculated as the percentage of that of control at each day to eliminate day-to-day variation caused by changes of environmental condition such as light intensity and temperature.
In cotton, ABA, PBO and the combination were applied to evaluate the effect on stomatol conductance. A decrease in stomatal aperture, reflected in the conductance measures, is an immediate and direct effect of applied ABA (Finkelstein and Rock, 2002).

Impatiens plants [5] = assay: Wilt index of Impatiens plants after spray application
Description: as §1, §2
In the ornamental plant Impatiens, spray applications were made to evaluate the effects of ABA, PBO or the combination to increase the number of days until the plants wilted. Using a wilt index of 1-4 (1=no wilt, 4=completely wilted and loss of turgor), plants were evaluated following spray application.

Viola (Violet) = assay: Marketability of Viola (Violet) after sprays
Description: as §1, §2
To determine if the combination of ABA and PBO is effective at increasing marketable life of other ornamental plants, Viola plants (Violet) were used. All applications were made by spray to fully hydrated plants. Spray solutions were applied as soon as possible after mixing. All spray applications contained Tween 20 at 0.05% (v/v).

[6] = drench 50 ppm, 0 hours after application
[7] = drench 50 ppm, 5 hours after application
[8] = drench 50 ppm, 24 hours after application
[9] = drench 50 ppm, 48 hours after application
[10] = drench 50 ppm, 72 hours after application
[11] = drench 50 ppm, 96 hours after application
[12] = spray PBO 1000 ppm + Tween 20 0.05%
[13] = spray 50 ppm, 0 hours after application
[14] = spray 50 ppm, 5 hours after application
[15] = spray 50 ppm, 24 hours after application
[16] = spray 50 ppm, 48 hours after application
[17] = spray 50 ppm, 72 hours after application
[18] = spray 50 ppm, 96 hours after application

## CCCCOCCOCCOCc1cc2c(cc1CCC)OCO2 [PBO, piperonyl butoxide]
Cotton [1]; [6]
  Percent Conductance (stomatal conductance, control = 100%): 100.8%
Cotton [1]; [7]
  Percent Conductance (stomatal conductance, control = 100%): 84.0%
Cotton [1]; [8]
  Percent Conductance (stomatal conductance, control = 100%): 95.1%
Cotton [1]; [9]
  Percent Conductance (stomatal conductance, control = 100%): 97.7%
Cotton [1]; [10]
  Percent Conductance (stomatal conductance, control = 100%): 91.6%
Cotton [1]; [11]
  Percent Conductance (stomatal conductance, control = 100%): 101.5%
Cotton [1]; drench 500 ppm, 0 hours after application
  Percent Conductance (stomatal conductance, control = 100%): 100.4%
Cotton [1]; drench 500 ppm, 5 hours after application
  Percent Conductance (stomatal conductance, control = 100%): 86.8%
Cotton [1]; drench 500 ppm, 24 hours after application
  Percent Conductance (stomatal conductance, control = 100%): 89.8%
Cotton [1]; drench 500 ppm, 48 hours after application
  Percent Conductance (stomatal conductance, control = 100%): 96.9%
Cotton [1]; drench 500 ppm, 72 hours after application
  Percent Conductance (stomatal conductance, control = 100%): 100.2%
Cotton [1]; drench 500 ppm, 96 hours after application
  Percent Conductance (stomatal conductance, control = 100%): 93.1%
Impatiens plants [2]; Table 5, drench water, spray PBO 1000 ppm + Tween 20 0.05%
  Days Marketable (Wilt index less than 2.5): 6.69 days
Impatiens plants [2]; Table 6, drench water, spray PBO 1000 ppm + Tween 20 0.05%
  Days Marketable (Wilt index less than 2.5): 6.5 days
Pansy; spray PBO 1.5 mg + Tween 20 0.05%
  Days Marketable (Wilt index less than 2.5): 5.8 days
Impatiens plants [3]; [12]
  Days Marketable (Wilt index less than 2.5): 6.6 days
Cotton [4]; PBO 500 ppm added to ABA spray, 5 hours
  Increase of the effect of ABA on stomatal conductance by addition of PBO: 27%
Cotton [4]; [13]
  Percent Conductance (stomatal conductance, control = 100%): 101.8%
Cotton [4]; [14]
  Percent Conductance (stomatal conductance, control = 100%): 89.6%
Cotton [4]; [15]
  Percent Conductance (stomatal conductance, control = 100%): 100.7%
Cotton [4]; [16]
  Percent Conductance (stomatal conductance, control = 100%): 100.2%
Cotton [4]; [17]
  Percent Conductance (stomatal conductance, control = 100%): 90.2%
Cotton [4]; [18]
  Percent Conductance (stomatal conductance, control = 100%): 96.2%
Cotton [4]; spray 500 ppm, 0 hours after application
  Percent Conductance (stomatal conductance, control = 100%): 103.0%
Cotton [4]; spray 500 ppm, 5 hours after application
  Percent Conductance (stomatal conductance, control = 100%): 67.2%
Cotton [4]; spray 500 ppm, 24 hours after application
  Percent Conductance (stomatal conductance, control = 100%): 68.5%
Cotton [4]; spray 500 ppm, 48 hours after application
  Percent Conductance (stomatal conductance, control = 100%): 81.5%
Cotton [4]; spray 500 ppm, 72 hours after application
  Percent Conductance (stomatal conductance, control = 100%): 84.6%
Cotton [4]; spray 500 ppm, 96 hours after application
  Percent Conductance (stomatal conductance, control = 100%): 95.2%
Impatiens plants [5]; spray PBO 1000 ppm + Tween 20 0.05%, 0 days after spray
  Wilt Index (1 = no wilt; 4 = plants wilted, complete loss of turgor): 1
Impatiens plants [5]; spray PBO 1000 ppm + Tween 20 0.05%, 4 days after spray
  Wilt Index (1 = no wilt; 4 = plants wilted, complete loss of turgor): 1.13
Impatiens plants [5]; spray PBO 1000 ppm + Tween 20 0.05%, 5 days after spray
  Wilt Index (1 = no wilt; 4 = plants wilted, complete loss of turgor): 1.34
Impatiens plants [5]; spray PBO 1000 ppm + Tween 20 0.05%, 6 days after spray
  Wilt Index (1 = no wilt; 4 = plants wilted, complete loss of turgor): 1.83
Impatiens plants [5]; spray PBO 1000 ppm + Tween 20 0.05%, 7 days after spray
  Wilt Index (1 = no wilt; 4 = plants wilted, complete loss of turgor): 2.25
Viola (Violet); [12]
  Days Marketable (Wilt index less than 2.5): 5.9 days

## S-(+)-abscisic acid [ABA]
Cotton [1]; 5 hours post drench
  Reduction of stomatal conductance: 44%
Cotton [1]; 24 hours post drench
  Reduction of stomatal conductance: 22.5%
Cotton [1]; [6]
  Percent Conductance (stomatal conductance, control = 100%): 100.3%
Cotton [1]; [7]
  Percent Conductance (stomatal conductance, control = 100%): 56.0%
Cotton [1]; [8]
  Percent Conductance (stomatal conductance, control = 100%): 77.5%
Cotton [1]; [9]
  Percent Conductance (stomatal conductance, control = 100%): 85.8%
Cotton [1]; [10]
  Percent Conductance (stomatal conductance, control = 100%): 83.9%
Cotton [1]; [11]
  Percent Conductance (stomatal conductance, control = 100%): 104.3%
Impatiens plants [2]; Table 5, drench ABA 200 ppm, spray Tween 20 0.05%
  Days Marketable (Wilt index less than 2.5): 7.69 days
Impatiens plants [2]; Table 6, drench ABA 50 ppm, spray Tween 20 0.05%
  Days Marketable (Wilt index less than 2.5): 6.5 days
Impatiens plants [2]; Table 6, drench ABA 200 ppm, spray Tween 20 0.05%
  Days Marketable (Wilt index less than 2.5): 8.1 days
Pansy; spray ABA 7.5 mg + Tween 20 0.05%
  Days Marketable (Wilt index less than 2.5): 7.6 days
Impatiens plants [3]; ABA spray 200 ppm versus control spray
  Increase in shelf life without watering: almost two day increase
Impatiens plants [3]; spray ABA 200 ppm + Tween 20 0.05%
  Days Marketable (Wilt index less than 2.5): 7.5 days
Cotton [4]; ABA spray, 5 hours after spray application
  Decrease in stomatal conductance: 58.9%
Cotton [4]; [13]
  Percent Conductance (stomatal conductance, control = 100%): 101.1%
Cotton [4]; [14]
  Percent Conductance (stomatal conductance, control = 100%): 41.1%
Cotton [4]; [15]
  Percent Conductance (stomatal conductance, control = 100%): 86.2%
Cotton [4]; [16]
  Percent Conductance (stomatal conductance, control = 100%): 91.9%
Cotton [4]; [17]
  Percent Conductance (stomatal conductance, control = 100%): 102.0%
Cotton [4]; [18]
  Percent Conductance (stomatal conductance, control = 100%): 100.6%
Impatiens plants [5]; spray ABA 200 ppm + Tween 20 0.05%, 0 days after spray
  Wilt Index (1 = no wilt; 4 = plants wilted, complete loss of turgor): 1
Impatiens plants [5]; spray ABA 200 ppm + Tween 20 0.05%, 4 days after spray
  Wilt Index (1 = no wilt; 4 = plants wilted, complete loss of turgor): 1.00
Impatiens plants [5]; spray ABA 200 ppm + Tween 20 0.05%, 5 days after spray
  Wilt Index (1 = no wilt; 4 = plants wilted, complete loss of turgor): 1.27
Impatiens plants [5]; spray ABA 200 ppm + Tween 20 0.05%, 6 days after spray
  Wilt Index (1 = no wilt; 4 = plants wilted, complete loss of turgor): 1.66
Impatiens plants [5]; spray ABA 200 ppm + Tween 20 0.05%, 7 days after spray
  Wilt Index (1 = no wilt; 4 = plants wilted, complete loss of turgor): 2.31
Viola (Violet); spray ABA 100 ppm + Tween 20 0.05%
  Days Marketable (Wilt index less than 2.5): 8.0 days
